Assay results published in patent US20240208992A1, “MACROCYCLES AS CFTR MODULATORS” (Idorsia Pharmaceuticals Ltd, priority 2021, published 2024).

Target: human F508del-CFTR (Homo sapiens, UniProt P13569, DEL508-508)
Test: F508del-CFTR cell surface expression (corrector activity), DiscoveRx ß-galactosidase complementation chemiluminescence assay in recombinant U2OS cell line;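 also: U2OS cells co-expressing ProLink-tagged F508del-CFTR and a membrane-anchored enzyme acceptor, where more surface CFTR restores β-galactosidase activity measured by chemiluminescence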
Conditions: for EC50: EC50, F508del-CFTR cell surface expression, U2OS cells, 16h compound incubation, geomean values; for Emax: U2OS, in relation to Emax of corrector lumacaftor (=100%), arithmetic mean values

Sequence of human F508del-CFTR (P13569 with tags, fused parts or gaps DEL508-508): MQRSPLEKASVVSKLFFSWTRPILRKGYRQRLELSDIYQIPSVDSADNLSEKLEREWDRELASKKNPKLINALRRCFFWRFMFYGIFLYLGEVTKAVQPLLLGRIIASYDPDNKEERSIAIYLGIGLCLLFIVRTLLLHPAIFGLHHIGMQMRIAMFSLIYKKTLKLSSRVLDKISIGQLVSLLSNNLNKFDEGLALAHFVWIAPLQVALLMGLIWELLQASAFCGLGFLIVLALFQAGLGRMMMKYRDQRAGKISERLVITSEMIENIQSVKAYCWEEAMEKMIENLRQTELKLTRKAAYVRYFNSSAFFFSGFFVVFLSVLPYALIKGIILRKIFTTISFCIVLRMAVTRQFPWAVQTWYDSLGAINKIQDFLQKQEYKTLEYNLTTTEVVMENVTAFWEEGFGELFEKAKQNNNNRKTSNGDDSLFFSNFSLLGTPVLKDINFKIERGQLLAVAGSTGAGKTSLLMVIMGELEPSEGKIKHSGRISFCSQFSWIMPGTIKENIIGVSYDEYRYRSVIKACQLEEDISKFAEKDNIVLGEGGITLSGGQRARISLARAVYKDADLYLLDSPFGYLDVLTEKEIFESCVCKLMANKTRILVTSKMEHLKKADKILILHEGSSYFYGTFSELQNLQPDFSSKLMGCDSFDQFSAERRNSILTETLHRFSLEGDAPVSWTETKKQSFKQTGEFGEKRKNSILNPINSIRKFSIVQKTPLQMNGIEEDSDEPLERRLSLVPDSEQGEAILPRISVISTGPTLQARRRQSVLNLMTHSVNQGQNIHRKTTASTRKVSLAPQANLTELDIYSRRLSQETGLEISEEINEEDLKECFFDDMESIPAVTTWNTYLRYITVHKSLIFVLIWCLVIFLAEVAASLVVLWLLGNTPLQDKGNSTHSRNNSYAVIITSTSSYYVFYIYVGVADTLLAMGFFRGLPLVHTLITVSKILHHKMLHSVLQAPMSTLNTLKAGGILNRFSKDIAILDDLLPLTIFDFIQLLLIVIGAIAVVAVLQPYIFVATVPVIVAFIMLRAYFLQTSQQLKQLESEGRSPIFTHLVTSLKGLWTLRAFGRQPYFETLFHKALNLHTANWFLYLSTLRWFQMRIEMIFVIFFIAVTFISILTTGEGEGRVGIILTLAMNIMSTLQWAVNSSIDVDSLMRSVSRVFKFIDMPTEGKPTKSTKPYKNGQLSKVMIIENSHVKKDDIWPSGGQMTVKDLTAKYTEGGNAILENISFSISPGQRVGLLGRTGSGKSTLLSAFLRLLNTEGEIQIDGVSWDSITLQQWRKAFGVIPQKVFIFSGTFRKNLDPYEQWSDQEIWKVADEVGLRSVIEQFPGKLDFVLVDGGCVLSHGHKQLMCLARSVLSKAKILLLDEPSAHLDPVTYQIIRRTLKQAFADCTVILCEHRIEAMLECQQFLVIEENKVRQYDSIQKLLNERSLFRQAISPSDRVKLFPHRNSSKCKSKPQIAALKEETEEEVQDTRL

SMILES	EC50 [nM]	Emax [%]
COc1cccc(CCNC(=O)[C@@H]2CC(=O)N(C)[C@@H](CC(C)C)C(=O)N(C)C3(CC3)C(=O)N[C@H](Cc3ccccc3)COc3ccnc(OC)c3C(=O)N2)c1 [Example 438, (3′R,9′S,13′S)-3′-benzyl-9′-isobutyl-16′-methoxy-N-(3-methoxyphenethyl)-7′,10′-dimethyl-5′,8′,11′,15′-tetraoxo-2′,3′,4′,5′,8′,9′,10′,11′,12′,13′,14′,15′-dodecahydro-7′H-spiro[cyclopropane-1,6′-pyrido[3,4-p][1]oxa[4,7,10,14]tetraazacycloheptadecine]-13′-carboxamide]	474	422
COc1cccc(CCNC(=O)[C@@H]2CC(=O)N(C)[C@@H](CC(C)C)C(=O)N(C)C3(CC3)C(=O)N[C@H](Cc3ccccc3)COc3cnc4c(F)cccc4c3C(=O)N2)c1 [Example 439, (3′S,7′S,13′R)-13′-benzyl-18′-fluoro-7′-isobutyl-N-(3-methoxyphenethyl)-6′,9′-dimethyl-1′,5′,8′,11′-tetraoxo-2′,3′,4′,5′,6′,7′,8′,9′,11′,12′,13′,14′-dodecahydro-1′H-spiro[cyclopropane-1,10′-[1]oxa[4,7,10,14]tetraazacycloheptadecino[17,16-c]quinoline]-3′-carboxamide]	253	345
Cc1cc(CCNC(=O)[C@@H]2CC(=O)N(C)[C@@H](CC(C)C)C(=O)N(C)C3(CC3)C(=O)N[C@H](Cc3ccccc3)COc3cnc4c(F)cccc4c3C(=O)N2)on1 [Example 440, (3′S,7′S,13′R)-13′-benzyl-18′-fluoro-7′-isobutyl-6′,9′-dimethyl-N-(2-(3-methylisoxazol-5-yl)ethyl)-1′,5′,8′,11′-tetraoxo-2′,3′,4′,5′,6′,7′,8′,9′,11′,12′,13′,14′-dodecahydro-1′H-spiro[cyclopropane-1,10′-[1]oxa[4,7,10,14]tetraazacycloheptadecino[17,16-c]quinoline]-3′-carboxamide]	788	296
COc1cccc(CCNC(=O)[C@@H]2CC(=O)N(C)[C@@H](CC(C)C)C(=O)N(C)CC(=O)N[C@H](Cc3ccccc3)COc3ccc4ncccc4c3C(=O)N2)c1 [Example 441, (3S,7S,13R)-13-benzyl-7-isobutyl-N-(3-methoxyphenethyl)-6,9-dimethyl-1,5,8,11-tetraoxo-1,2,3,4,5,6,7,8,9,10,11,12,13,14-tetradecahydro-[1]oxa[4,7,10,14]tetraazacycloheptadecino[16,17-f]quinoline-3-carboxamide]	815	326
COc1cccc(CCNC(=O)[C@@H]2CC(=O)N(C)[C@@H](CC(C)C)C(=O)N(C)C3(CC3)C(=O)N[C@H](Cc3ccccc3)COc3nc4ccccn4c3C(=O)N2)c1 [Example 442, (3′R,9′S,13′S)-3′-benzyl-9′-isobutyl-N-(3-methoxyphenethyl)-7′,10′-dimethyl-5′,8′,11′,15′-tetraoxo-2′,3′,4′,5′,8′,9′,10′,11′,12′,13′,14′,15′-dodecahydro-7′H-spiro[cyclopropane-1,6′-pyrido[2′,11:2,3]imidazo[4,5-p][1]oxa[4,7,10,14]tetraazacycloheptadecine]-13′-carboxamide]	443	154
Cc1cc(CCNC(=O)[C@@H]2CC(=O)N(C)[C@@H](CC(C)C)C(=O)N3CCCC[C@@H]3C(=O)N[C@H](Cc3ccccc3)COc3cnc4c(F)cccc4c3C(=O)N2)on1 [Example 443, (9S,13S,19aR,22R)-22-benzyl-3-fluoro-13-isobutyl-12-methyl-N-(2-(3-methylisoxazol-5-yl)ethyl)-7,11,14,20-tetraoxo-7,8,9,10,11,12,13,14,17,18,19,19a,20,21,22,23-hexadecahydro-16H-pyrido[2′,1′:6,7][1]oxa[4,7,10,14]tetraazacycloheptadecino[17,16-c]quinoline-9-carboxamide]	316	275
Cc1cc(CCNC(=O)[C@@H]2CC(=O)N(C)[C@@H](CC(C)C)C(=O)N3CCCC[C@@H]3C(=O)N[C@H](Cc3ccccc3)COc3ccnc(C)c3C(=O)N2)on1 [Example 444, (7S,11S,17aR,20R)-20-benzyl-11-isobutyl-4,10-dimethyl-N-(2-(3-methylisoxazol-5-yl)ethyl)-5,9,12,18-tetraoxo-5,6,7,8,9,10,11,12,15,16,17,17a,18,19,20,21-hexadecahydro-14H-dipyrido[2,1-f:3′,4′-p][1]oxa[4,7,10,14]tetraazacycloheptadecine-7-carboxamide]	1050	199
Cc1cc(CCNC(=O)[C@@H]2CC(=O)N(C)[C@@H](CC(C)C)C(=O)N(C[C@H]3CCCCO3)CC(=O)N[C@H](Cc3ccccc3)COc3cnc4ccccc4c3C(=O)N2)on1 [Example 445, (3S,7S,13R)-13-benzyl-7-isobutyl-6-methyl-N-(2-(3-methylisoxazol-5-yl)ethyl)-1,5,8,11-tetraoxo-9-(((R)-tetrahydro-2H-pyran-2-yl)methyl)-1,2,3,4,5,6,7,8,9,10,11,12,13,14-tetradecahydro-[1]oxa[4,7,10,14]tetraazacycloheptadecino[17,16-c]quinoline-3-carboxamide]	958	194
Cc1cc(CCNC(=O)[C@@H]2CC(=O)N(C)[C@@H](CC(C)C)C(=O)N(CC[C@@H]3CCCCO3)CC(=O)N[C@H](Cc3ccccc3)COc3cnc4ccccc4c3C(=O)N2)on1 [Example 446, (3S,7S,13R)-13-benzyl-7-isobutyl-6-methyl-N-(2-(3-methylisoxazol-5-yl)ethyl)-1,5,8,11-tetraoxo-9-(2-((S)-tetrahydro-2H-pyran-2-yl)ethyl)-1,2,3,4,5,6,7,8,9,10,11,12,13,14-tetradecahydro-[1]oxa[4,7,10,14]tetraazacycloheptadecino[17,16-c]quinoline-3-carboxamide]	900	248
COc1cccc(CCNC(=O)[C@@H]2CC(=O)N(C)[C@@H](CC(C)C)C(=O)N(C)C3(CC3)C(=O)N[C@H](Cc3ccccc3)COc3ccc4c(c3C(=O)N2)OCC4)c1 [Example 447, (8R,14S,18S)-8-benzyl-14-isobutyl-N-(3-methoxyphenethyl)-12,15-dimethyl-10,13,16,20-tetraoxo-2,3,7,8,9,10,13,14,15,16,17,18,19,20-tetradecahydro-12H-spiro[benzofuro[7,6-p][1]oxa[4,7,10,14]tetraazacycloheptadecine-11,1′-cyclopropane]-18-carboxamide]	447	220
Cc1cc(CCNC(=O)[C@@H]2CC(=O)N(C)[C@@H](CC(C)C)C(=O)N(C)C3(CC3)C(=O)N[C@H](Cc3ccccc3)COc3nc4ccccn4c3C(=O)N2)on1 [Example 448, (3′R,9′S,13′S)-3′-benzyl-9′-isobutyl-7′,10′-dimethyl-N-(2-(3-methylisoxazol-5-yl)ethyl)-5′,8′,11′,15′-tetraoxo-2′,3′,4′,5′,8′,9′,10′,11′,12′,13′,14′,15′-dodecahydro-7′H-spiro[cyclopropane-1,6′-pyrido[2′,11:2,3]imidazo[4,5-p][1]oxa[4,7,10,14]tetraazacycloheptadecine]-13′-carboxamide]	961	109
COc1cccc(CCNC(=O)[C@@H]2CC(=O)N(C)[C@@H](CC(C)C)C(=O)N(C)CC(=O)N[C@H](Cc3ccccc3)COc3nc4ccccn4c3C(=O)N2)c1 [Example 449, (3R,9S,13S)-3-benzyl-9-isobutyl-N-(3-methoxyphenethyl)-7,10-dimethyl-5,8,11,15-tetraoxo-2,3,4,5,6,7,8,9,10,11,12,13,14,15-tetradecahydropyrido[2′,1′:2,3]imidazo[4,5-p][1]oxa[4,7,10,14]tetraazacycloheptadecine-13-carboxamide]	543	165
COc1cccc(CCNC(=O)[C@@H]2CC(=O)N(C)[C@@H](CC(C)C)C(=O)N(C)CC(=O)N[C@H](Cc3ccccc3)COc3ccc4c(c3C(=O)N2)CCO4)c1 [Example 450, (3S,7S,13R)-13-benzyl-7-isobutyl-N-(3-methoxyphenethyl)-6,9-dimethyl-1,5,8,11-tetraoxo-1,2,3,4,5,6,7,8,9,10,11,12,13,14,19,20-hexadecahydrobenzofuro[4,5-p][1]oxa[4,7,10,14]tetraazacycloheptadecine-3-carboxamide]	379	107
COc1cccc(CCNC(=O)[C@@H]2CC(=O)N(C)[C@@H](CC(C)C)C(=O)N3CCN(CCCO)C[C@@H]3C(=O)N[C@H](Cc3ccccc3)COc3ccc4ccccc4c3C(=O)N2)c1 [Example 451, (4aR,7R,18S,22S)-7-benzyl-3-(3-hydroxypropyl)-22-isobutyl-N-(3-methoxyphenethyl)-21-methyl-5,16,20,23-tetraoxo-2,3,4,4a,5,6,7,8,16,17,18,19,20,21,22,23-hexadecahydro-1H-naphtho[1,2-p]pyrazino[2,1-f][1]oxa[4,7,10,14]tetraazacycloheptadecine-18-carboxamide]	257	307
Cc1cc(CCNC(=O)[C@@H]2CC(=O)N(C)[C@@H](CC(C)C)C(=O)N3CCN(CCCO)C[C@@H]3C(=O)N[C@H](Cc3ccccc3)COc3ccc4ccccc4c3C(=O)N2)on1 [Example 452, (4aR,7R,18S,22S)-7-benzyl-3-(3-hydroxypropyl)-22-isobutyl-21-methyl-N-(2-(3-methylisoxazol-5-yl)ethyl)-5,16,20,23-tetraoxo-2,3,4,4a,5,6,7,8,16,17,18,19,20,21,22,23-hexadecahydro-1H-naphtho[1,2-p]pyrazino[2,1-f][1]oxa[4,7,10,14]tetraazacycloheptadecine-18-carboxamide]	886	292
CC(C)C[C@H]1C(=O)N(C)C2(CC2)C(=O)N[C@H](Cc2ccccc2)COc2cnc3ccccc3c2C(=O)N[C@H](C(=O)NCCc2cccc(-n3nccn3)c2)CC(=O)N1C [Example 453, (3′S,7′S,13′R)-N-(3-(2H-1,2,3-triazol-2-yl)phenethyl)-13′-benzyl-7′-isobutyl-6′,9′-dimethyl-1′,5′,8′,11′-tetraoxo-2′,3′,4′,5′,6′,7′,8′,9′,11′,12′,13′,14′-dodecahydro-1′H-spiro[cyclopropane-1,10′-[1]oxa[4,7,10,14]tetraazacycloheptadecino[17,16-c]quinoline]-3′-carboxamide]	417	251
